Data on 18 molecules can be found in ChEMBL document CHEMBL1145006 (J Med Chem, 2003).

Format in all cases: cell-based
The target of experiment [1] is Somatostatin receptor type 5 (Homo sapiens, UniProt P35346). As to the kind of experiment: Binding affinity towards human Somatostatin receptor type 5 (sst5) using Tyr11-[125I]-SRIF as radioligand was determined in COS cell.
The target in experiment [2] is Somatostatin receptor type 1 (Homo sapiens, UniProt P30872). As to the kind of experiment: Binding affinity towards human Somatostatin receptor type 1 (sst1) using Tyr11-[125I]-SRIF as radioligand was determined in CHO cells.
Somatostatin receptor type 1, sequence (P30872 whole entry): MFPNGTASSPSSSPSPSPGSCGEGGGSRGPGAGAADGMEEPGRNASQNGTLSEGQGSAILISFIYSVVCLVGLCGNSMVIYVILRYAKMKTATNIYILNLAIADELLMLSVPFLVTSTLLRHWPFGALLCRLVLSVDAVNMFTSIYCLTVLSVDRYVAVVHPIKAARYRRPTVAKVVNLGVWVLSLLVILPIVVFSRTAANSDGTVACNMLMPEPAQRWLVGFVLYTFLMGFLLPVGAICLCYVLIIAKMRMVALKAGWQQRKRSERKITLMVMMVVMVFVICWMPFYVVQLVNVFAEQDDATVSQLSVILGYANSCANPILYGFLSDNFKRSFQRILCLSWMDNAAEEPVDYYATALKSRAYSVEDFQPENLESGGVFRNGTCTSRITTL
The target of experiment [3] is Somatostatin receptor type 2 (Homo sapiens, UniProt P30874). In words: Binding affinity towards human Somatostatin receptor type 2 (sst2) using Tyr11-[125I]-SRIF as radioligand was determined in CHO cells.
Somatostatin receptor type 2, sequence (P30874 whole entry): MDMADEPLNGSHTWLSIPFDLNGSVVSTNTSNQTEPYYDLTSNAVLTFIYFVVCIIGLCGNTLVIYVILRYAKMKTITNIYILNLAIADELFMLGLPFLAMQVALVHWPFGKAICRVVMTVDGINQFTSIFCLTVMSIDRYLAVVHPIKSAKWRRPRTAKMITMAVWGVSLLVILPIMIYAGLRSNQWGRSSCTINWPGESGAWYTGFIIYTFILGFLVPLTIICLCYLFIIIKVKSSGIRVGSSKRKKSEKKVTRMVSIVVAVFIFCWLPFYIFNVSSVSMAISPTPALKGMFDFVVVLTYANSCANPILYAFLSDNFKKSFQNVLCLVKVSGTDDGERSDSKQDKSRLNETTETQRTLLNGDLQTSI
Experiment [4] addresses Somatostatin receptor type 3 (Homo sapiens, UniProt P32745). In words: Binding affinity towards human Somatostatin receptor type 3 (sst3) using Tyr11-[125I]-SRIF as radioligand was determined in CHO cells.
Experiment [5] deals with Somatostatin receptor type 4 (Homo sapiens, UniProt P31391). As to the kind of experiment: Binding affinity towards human Somatostatin receptor type 4 (sst4) using Tyr11-[125I]-SRIF as radioligand was determined in CHO cells. As to conditions: for Log Ki: cho.
Somatostatin receptor type 4, sequence (P31391 whole entry): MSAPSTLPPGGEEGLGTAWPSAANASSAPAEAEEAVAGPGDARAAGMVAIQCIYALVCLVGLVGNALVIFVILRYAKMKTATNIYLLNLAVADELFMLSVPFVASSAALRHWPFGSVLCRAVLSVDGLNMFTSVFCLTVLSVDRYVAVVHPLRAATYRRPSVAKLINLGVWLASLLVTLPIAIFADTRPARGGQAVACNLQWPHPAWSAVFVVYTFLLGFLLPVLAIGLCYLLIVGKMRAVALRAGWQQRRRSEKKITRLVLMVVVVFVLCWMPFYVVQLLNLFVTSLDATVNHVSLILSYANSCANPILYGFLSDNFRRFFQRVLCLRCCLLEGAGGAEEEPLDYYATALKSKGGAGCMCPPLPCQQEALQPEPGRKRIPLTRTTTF

Positions of bridges follow the written chain, without caps; N, C: chain ends. Non-standard residues stand in square brackets, D forms with d. Residues, ends and D or L forms follow the SMILES beside them.

Somatostatin receptor type 3, sequence (P32745 whole entry): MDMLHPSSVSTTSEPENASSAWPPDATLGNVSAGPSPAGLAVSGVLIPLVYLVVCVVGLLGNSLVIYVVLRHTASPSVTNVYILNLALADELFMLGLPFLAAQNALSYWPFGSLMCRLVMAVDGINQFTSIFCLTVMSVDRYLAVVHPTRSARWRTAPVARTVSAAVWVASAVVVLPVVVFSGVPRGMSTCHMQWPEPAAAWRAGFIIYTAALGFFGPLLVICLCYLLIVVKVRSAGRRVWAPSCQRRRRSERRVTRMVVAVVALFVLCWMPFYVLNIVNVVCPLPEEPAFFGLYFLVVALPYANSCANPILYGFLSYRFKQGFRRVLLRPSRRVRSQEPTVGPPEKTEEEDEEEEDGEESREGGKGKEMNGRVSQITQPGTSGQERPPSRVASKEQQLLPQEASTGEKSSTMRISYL
Somatostatin receptor type 5, sequence (P35346 whole entry): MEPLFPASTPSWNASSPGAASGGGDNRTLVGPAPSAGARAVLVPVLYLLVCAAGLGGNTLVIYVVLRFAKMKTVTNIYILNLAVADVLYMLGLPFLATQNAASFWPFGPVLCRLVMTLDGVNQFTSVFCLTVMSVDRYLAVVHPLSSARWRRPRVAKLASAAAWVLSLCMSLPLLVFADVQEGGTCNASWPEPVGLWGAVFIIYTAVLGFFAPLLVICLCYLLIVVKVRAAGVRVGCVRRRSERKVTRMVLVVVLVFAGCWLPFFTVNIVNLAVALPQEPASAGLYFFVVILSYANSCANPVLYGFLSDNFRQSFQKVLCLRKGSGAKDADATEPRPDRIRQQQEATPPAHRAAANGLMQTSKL

Consider `NCCCC[C@@H]1NC(=O)[C@@H](Cc2c[nH]c3ccccc23)NC(=O)[C@H](Cc2c[nH]cn2)NC(=O)[C@@H]2C[C@@H](OC(=O)NCCN)CN2C(=O)[C@H](Cc2ccccc2)NC(=O)[C@H](Cc2ccc(OCc3ccccc3)cc2)NC1=O`, for which the Ki (in general, a dissociation constant, usually derived from enzyme kinetics or from competition with a known ligand) in experiment [1] is 3.16 nM; in experiment [2] it was 3.98 nM; in experiment [3], 0.794 nM; in experiment [4], 0.794 nM. In experiment [5], this molecule gave a Log Ki greater than -7.
As to `NCCCCCNC(=O)O[C@@H]1C[C@H]2C(=O)N[C@@H](Cc3ccccc3)C(=O)N[C@H](Cc3c[nH]c4ccccc34)C(=O)N[C@@H](CCCCN)C(=O)N[C@@H](Cc3ccc(OCc4ccccc4)cc3)C(=O)N[C@@H](Cc3ccccc3)C(=O)N2C1`, the Ki is 0.631 nM in experiment [1]; 10 nM in experiment [2]; 3.16 nM in experiment [3]; 2 nM in experiment [4]; 631 nM in experiment [5].
In the same order, the values of `NCCCC[C@@H]1NC(=O)[C@@H](Cc2c[nH]c3ccccc23)NC(=O)[C@H](CCCN=C(N)N)NC(=O)[C@@H]2C[C@@H](OC(=O)NCCN)CN2C(=O)[C@H](Cc2ccccc2)NC(=O)[C@H](Cc2ccc(OCc3ccccc3)cc2)NC1=O` are 0.398 nM, 6.31 nM, 10 nM, 20 nM and 316 nM.
Take `NCCCC[C@@H]1NC(=O)[C@@H](Cc2c[nH]c3ccccc23)NC(=O)[C@H](Cc2ccc(O)cc2)NC(=O)[C@@H]2C[C@@H](OC(=O)NCCN)CN2C(=O)[C@H](Cc2ccccc2)NC(=O)[C@H](Cc2ccc(OCc3ccccc3)cc2)NC1=O`: the Ki in experiment [1] is 0.251 nM; in experiment [2] it was 1.58 nM; in experiment [3], 0.794 nM; in experiment [4], 0.631 nM. This molecule also showed a Log Ki in experiment [5] greater than -7.
In the same order, the values of `CN(C)CCNC(=O)O[C@@H]1C[C@H]2C(=O)N[C@@H](Cc3ccccc3)C(=O)N[C@H](Cc3c[nH]c4ccccc34)C(=O)N[C@@H](CCCCN)C(=O)N[C@@H](Cc3ccc(OCc4ccccc4)cc3)C(=O)N[C@@H](Cc3ccccc3)C(=O)N2C1` are 0.1 nM, 1.58 nM, 0.501 nM, 0.316 nM and greater than -7.
`C[C@@H](O)[C@@H]1NC(=O)[C@H](CCCCN)NC(=O)[C@@H](Cc2c[nH]c3ccccc23)NC(=O)[C@H](Cc2ccccc2)NC(=O)[C@@H]2CCCN2C(=O)[C@H](Cc2ccccc2)NC1=O`: the Log Ki in experiment [5] was greater than -7.
In the case of `C[C@H](N)C(=O)N[C@@H](C)C(=O)N[C@H]1CSSC[C@@H](C(N)=O)NC(=O)[C@H](CO)NC(=O)[C@H]([C@@H](C)O)NC(=O)[C@H](Cc2ccccc2)NC(=O)[C@H]([C@@H](C)O)NC(=O)[C@H](CCCCN)NC(=O)[C@H](Cc2c[nH]c3ccccc23)NC(=O)[C@H](Cc2ccccc2)NC(=O)[C@H](Cc2ccccc2)NC(=O)[C@H](CC(N)=O)NC(=O)[C@H](CCCCN)NC1=O` (H-AACKNFFWKTFTSC-NH2; disulfide 3-14), the Ki is 1.26 nM in experiment [1], 0.2 nM in experiment [2], 0.158 nM in experiment [3] and 0.794 nM in experiment [4]. The Log Ki in experiment [5] was greater than -9.7.
On the same counts, the results for `C[C@H](N)C(=O)NCC(=O)N[C@H]1CSSC[C@@H](C(N)=O)NC(=O)[C@H](CO)NC(=O)[C@H]([C@@H](C)O)NC(=O)[C@H](Cc2ccccc2)NC(=O)[C@H]([C@@H](C)O)NC(=O)[C@H](CCCCN)NC(=O)[C@H](Cc2c[nH]c3ccccc23)NC(=O)[C@H](Cc2ccccc2)NC(=O)[C@H](Cc2ccccc2)NC(=O)[C@H](CC(N)=O)NC(=O)[C@H](C)NC1=O` (H-AGCANFFWKTFTSC-NH2; disulfide 3-14) are 1 nM, 0.794 nM, 0.501 nM, 2.51 nM and greater than -9.5.
Turning to `C[C@H](N)C(=O)NCC(=O)N[C@H]1CSSC[C@@H](C(N)=O)NC(=O)[C@H](CO)NC(=O)[C@H]([C@@H](C)O)NC(=O)[C@H](Cc2ccccc2)NC(=O)[C@H]([C@@H](C)O)NC(=O)[C@H](CCCCN)NC(=O)[C@H](Cc2c[nH]c3ccccc23)NC(=O)[C@H](Cc2ccccc2)NC(=O)[C@H](Cc2ccccc2)NC(=O)[C@H](C)NC(=O)[C@H](CCCCN)NC1=O` (H-AGCKAFFWKTFTSC-NH2; disulfide 3-14), the Ki in experiment [1] was 0.158 nM; in experiment [2], 0.251 nM; in experiment [3], 0.126 nM; in experiment [4], 0.631 nM. For the same molecule, the Log Ki in experiment [5] is greater than -9.7.
In the same order, the values of `C[C@H](N)C(=O)NCC(=O)N[C@H]1CSSC[C@@H](C(N)=O)NC(=O)[C@H](CO)NC(=O)[C@H]([C@@H](C)O)NC(=O)[C@H](Cc2ccccc2)NC(=O)[C@H]([C@@H](C)O)NC(=O)[C@H](CCCCN)NC(=O)[C@H](Cc2c[nH]c3ccccc23)NC(=O)[C@H](Cc2ccccc2)NC(=O)[C@H](C)NC(=O)[C@H](CC(N)=O)NC(=O)[C@H](CCCCN)NC1=O` (H-AGCKNAFWKTFTSC-NH2; disulfide 3-14) are 100 nM, 126 nM, 20 nM, 200 nM and greater than -7.1.
Take `C[C@H](N)C(=O)NCC(=O)N[C@H]1CSSC[C@@H](C(N)=O)NC(=O)[C@H](CO)NC(=O)[C@H]([C@@H](C)O)NC(=O)[C@H](Cc2ccccc2)NC(=O)[C@H]([C@@H](C)O)NC(=O)[C@H](CCCCN)NC(=O)[C@H](Cc2c[nH]c3ccccc23)NC(=O)[C@H](C)NC(=O)[C@H](Cc2ccccc2)NC(=O)[C@H](CC(N)=O)NC(=O)[C@H](CCCCN)NC1=O` (H-AGCKNFAWKTFTSC-NH2; disulfide 3-14): the Ki was 79.4 nM in experiment [1], 20 nM in experiment [2], 20 nM in experiment [3] and 25.1 nM in experiment [4]. In experiment [5], the Log Ki was greater than -8.7.
As for `C[C@H](N)C(=O)NCC(=O)N[C@H]1CSSC[C@@H](C(N)=O)NC(=O)[C@H](CO)NC(=O)[C@H]([C@@H](C)O)NC(=O)[C@H](Cc2ccccc2)NC(=O)[C@H]([C@@H](C)O)NC(=O)[C@H](CCCCN)NC(=O)[C@H](C)NC(=O)[C@H](Cc2ccccc2)NC(=O)[C@H](Cc2ccccc2)NC(=O)[C@H](CC(N)=O)NC(=O)[C@H](CCCCN)NC1=O` (H-AGCKNFFAKTFTSC-NH2; disulfide 3-14), the Ki in experiment [1] is 79.4 nM; in experiment [2], 1000 nM; in experiment [3], 1000 nM; in experiment [4] it was 1000 nM; in experiment [5] it was greater than 1000 nM.
`C[C@H](N)C(=O)NCC(=O)N[C@H]1CSSC[C@@H](C(N)=O)NC(=O)[C@H](CO)NC(=O)[C@H]([C@@H](C)O)NC(=O)[C@H](Cc2ccccc2)NC(=O)[C@H]([C@@H](C)O)NC(=O)[C@H](C)NC(=O)[C@H](Cc2c[nH]c3ccccc23)NC(=O)[C@H](Cc2ccccc2)NC(=O)[C@H](Cc2ccccc2)NC(=O)[C@H](CC(N)=O)NC(=O)[C@H](CCCCN)NC1=O` (H-AGCKNFFWATFTSC-NH2; disulfide 3-14): the Ki in experiment [1] is 100 nM; in experiment [2], 1000 nM; in experiment [3] it was 1000 nM; in experiment [4] it was 1000 nM; in experiment [5] it was greater than 1000 nM.
In the case of `C[C@H](N)C(=O)NCC(=O)N[C@H]1CSSC[C@@H](C(N)=O)NC(=O)[C@H](CO)NC(=O)[C@H]([C@@H](C)O)NC(=O)[C@H](Cc2ccccc2)NC(=O)[C@H](C)NC(=O)[C@H](CCCCN)NC(=O)[C@H](Cc2c[nH]c3ccccc23)NC(=O)[C@H](Cc2ccccc2)NC(=O)[C@H](Cc2ccccc2)NC(=O)[C@H](CC(N)=O)NC(=O)[C@H](CCCCN)NC1=O` (H-AGCKNFFWKAFTSC-NH2; disulfide 3-14), the Ki was 0.631 nM in experiment [1], 6.31 nM in experiment [2], 1 nM in experiment [3] and 1.58 nM in experiment [4]. In addition, in experiment [5], the Log Ki is greater than -8.4.
On to `C[C@H](N)C(=O)NCC(=O)N[C@H]1CSSC[C@@H](C(N)=O)NC(=O)[C@H](CO)NC(=O)[C@H]([C@@H](C)O)NC(=O)[C@H](C)NC(=O)[C@H]([C@@H](C)O)NC(=O)[C@H](CCCCN)NC(=O)[C@H](Cc2c[nH]c3ccccc23)NC(=O)[C@H](Cc2ccccc2)NC(=O)[C@H](Cc2ccccc2)NC(=O)[C@H](CC(N)=O)NC(=O)[C@H](CCCCN)NC1=O` (H-AGCKNFFWKTATSC-NH2; disulfide 3-14), for which the Ki in experiment [1] was 6.31 nM; in experiment [2], 0.631 nM; in experiment [3], 6.31 nM; in experiment [4], 7.94 nM. Moreover, the Log Ki in experiment [5] is greater than -9.
Consider `CC(C)[C@@H]1NC(=O)[C@H](CCCCN)NC(=O)[C@@H](Cc2c[nH]c3ccccc23)NC(=O)[C@H](Cc2ccc(O)cc2)NC(=O)[C@@H](NC(=O)[C@H](N)Cc2ccc3ccccc3c2)CSSC[C@@H](C(=O)N[C@H](C(N)=O)[C@@H](C)O)NC1=O` [LANREOTIDE], for which the affinity in experiment [2], expressed as Ki, was 501 nM.
In the case of `CC(C)[C@@H]1NC(=O)[C@H](CCCCN)NC(=O)[C@@H](Cc2c[nH]c3ccccc23)NC(=O)[C@H](Cc2ccc(O)cc2)NC(=O)[C@H](C)N(C)C(=O)[C@H](Cc2ccccc2)NC1=O` [SEGLITIDE], the Ki in experiment [1] was 12.6 nM; in experiment [2], greater than 1000 nM; in experiment [4], 31.6 nM.
For `CC(C)[C@@H]1NC(=O)[C@H](CCCCN)NC(=O)[C@@H](Cc2c[nH]c3ccccc23)NC(=O)[C@H](Cc2ccc(O)cc2)NC(=O)[C@@H](NC(=O)[C@H](N)Cc2ccccc2)CSSC[C@@H](C(=O)N[C@@H](Cc2c[nH]c3ccccc23)C(N)=O)NC1=O` [VAPREOTIDE] (H-[dF]CY[dW]KVCW-NH2; disulfide 2-7), the inhibition constant (Ki) in experiment [2] is 158 nM; in experiment [3] it was 0.0794 nM; in experiment [4] it was 20 nM; in experiment [5] it was 158 nM.
